Measurements published in patent US20230192683A1, “FUSED RING COMPOUNDS, PREPARATION METHOD THEREFOR, PHARMACEUTICAL COMPOSITIONS AND USE THEREOF” (priority 2020, published 2023).
Marks after values point to notes of the source that are not given here.

How the values were obtained:
[1] = metabolic stability in pooled human liver microsomes; conditions: pooled human liver microsomes, pH 7.4
Method: (§1) Metabolic degradation of a test compound was analyzed using pooled human liver microsomes and male rat liver microsomes, respectively, at 37° C.
(§2) After pre-incubation at 37° C. for 5 min, NADPH (5 mM, 60 µL) was added to initiate a reaction. A fixed volume of the reaction mixture (30 µL) was sampled into the solution at fixed time points (0, 5, 15, 30, 60 min) to quench the reaction. After centrifugation (4000 rpm, 15 min), the supernatant (100 µL) was mixed with distilled water (100 µL) and then subjected to LC-MS/MS analysis to test the amount of the compound. A half-life was calculated using a first-order reaction kinetic equation (Ct = C0 × e^-ket, T½ = Ln2/ke).

[2] = metabolic stability in male rat liver microsomes; conditions: rat liver microsomes, pH 7.4
Method: as §1, §2

[3] = pharmacokinetic evaluation in rats after oral and intravenous administration; assay type: in vivo; conditions: Sprague-Dawley, rat, plasma, male SD rats, oral 10.0 mg/kg, intravenous 1.0 mg/kg, route and unit inferred
Method: Using rats as test animals, an LC/MS/MS method was used to determine the drug concentrations in plasma at different times after oral and intravenous administration of Compound 1a and Compound 14 in the rats. The pharmacokinetic behavior of the compounds of the present invention in rats was studied, and pharmacokinetic characteristics thereof were evaluated.
For each compound, 6 healthy adult SD (Sprague-Dawley) rats, male, were divided into oral and intravenous administration groups, 3 rats in each group, purchased from Shanghai SIPPR/BK Laboratory Animal Co., Ltd., animal production license number: SCXK (Shanghai) 2008-0016.
A specific amount of the drug was weighed and dissolved in 5% dimethylacetamide (DMA) + 5% polyethylene glycol-15 hydroxystearate (solutol) + 90% saline solution to prepare a 0.2 mg/mL solution.
The SD rats were fasted overnight and were administered orally and intravenously. The oral dose was 10.0 mg/kg, and the intravenous dose was 1.0 mg/kg.
Compound 1a and Compound 14 were administered orally and intravenously to the rats. At 0.083, 0.25, 0.5, 1, 2, 4, 8, and 24 hours after administration, 0.2 mL of blood was collected from the submandibular vein or other suitable blood vessels, placed in K2-EDTA tubes, and then stored on ice. Within one hour, the plasma was separated by centrifugation at 6,800 g for 6 minutes at 2-8° C., and stored at -80° C. for LC/MS/MS analysis. The rats were fed 4 hours after administration.

rat CFA pain model = assay: multi-dose oral pharmacodynamic study in rat CFA pain model (Von Frey PWT); assay type: in vivo
Method: The efficacy of Compound 1a and Compound 14 in the rat CFA pain model was evaluated using a mechanical allodynia method.
SD rats, 72 males, divided into 9 groups, were purchased from Beijing Vital River Laboratory Animal Technology Co., Ltd.
The experimental animals were adaptively reared for 3 to 7 days, and 8 of them were selected as a normal control group, and the other animals were injected with 50 µL of CFA in the center of the left hind paw for modeling. 24 hours after injection, the animals were tested for paw withdrawal threshold (PWT) basal values, and were divided into groups according to the basal values, which were solvent control group, indomethacin group, Compound 1a, 10 mpk group, Compound 1a, 30 mpk group, Compound 1a, 100 mpk group, Compound 14, 3 mpk group, Compound 14, 10 mpk group, and Compound 14, 30 mpk group, with 8 animals in each group. Subsequently, the animals were weighed and administered orally according to Table 6. All the animals were tested for paw withdrawal thresholds (PWT) using Von Frey 1, 2, and 4 hours after administration to further evaluate the efficacy of the compounds of the present invention.

human SSTR1 = target: T1, human SSTR1 (Homo sapiens, UniProt P30872); assay: biochemical; conditions: 25° C., 2 hours, Cheng-Prusoff; read-out: Binding Ki (nM) SSTR1
T1 construct: expressed in transfected cells; host or cells: CHO-K1 (membrane homogenates)
Method: (§3) Cell membranes were then filtered and washed, and protein-bound radioactivity was measured with a suitable instrument. The Ki values of corresponding targets were calculated using a Cheng-Prusoff formula.

human SSTR2 = target: T2, human SSTR2 (Homo sapiens, UniProt P30874); assay: biochemical; conditions: 25° C., 2 hours, Cheng-Prusoff; read-out: Binding Ki (nM) SSTR2
T2 construct: expressed in transfected cells; host or cells: CHO-K1 (membrane homogenates)
Method: as §3

human SSTR3 = target: T3, human SSTR3 (Homo sapiens, UniProt P32745); assay: biochemical; conditions: 25° C., 2 hours, Cheng-Prusoff; read-out: Binding Ki (nM) SSTR3
T3 construct: expressed in transfected cells; host or cells: CHO-K1 (membrane homogenates)
Method: as §3

human SSTR5 = target: T4, human SSTR5 (Homo sapiens, UniProt P35346); assay: biochemical; conditions: 25° C., 2 hours, Cheng-Prusoff; read-out: Binding Ki (nM) SSTR5
T4 construct: expressed in transfected cells; host or cells: CHO-K1 (membrane homogenates)
Method: as §3

human SSTR4 = target: T5, human SSTR4 (Homo sapiens, UniProt P31391); assay: radioligand binding assay, [125I]Somatostatin-14, CHO-K1 membranes
T5 construct: expressed in transfected cells
Method: as §3

T5 sequence (P31391 whole entry): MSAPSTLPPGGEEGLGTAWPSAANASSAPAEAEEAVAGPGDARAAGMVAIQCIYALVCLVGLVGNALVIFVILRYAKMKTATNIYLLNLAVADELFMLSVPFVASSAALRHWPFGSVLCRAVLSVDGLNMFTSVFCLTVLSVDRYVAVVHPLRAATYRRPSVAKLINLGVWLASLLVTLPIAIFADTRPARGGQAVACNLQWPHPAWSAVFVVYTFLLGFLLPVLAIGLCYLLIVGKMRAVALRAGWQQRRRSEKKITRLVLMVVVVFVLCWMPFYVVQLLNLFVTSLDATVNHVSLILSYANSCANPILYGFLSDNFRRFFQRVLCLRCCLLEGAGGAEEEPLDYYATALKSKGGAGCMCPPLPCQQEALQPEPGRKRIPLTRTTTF
T4 sequence (P35346 whole entry): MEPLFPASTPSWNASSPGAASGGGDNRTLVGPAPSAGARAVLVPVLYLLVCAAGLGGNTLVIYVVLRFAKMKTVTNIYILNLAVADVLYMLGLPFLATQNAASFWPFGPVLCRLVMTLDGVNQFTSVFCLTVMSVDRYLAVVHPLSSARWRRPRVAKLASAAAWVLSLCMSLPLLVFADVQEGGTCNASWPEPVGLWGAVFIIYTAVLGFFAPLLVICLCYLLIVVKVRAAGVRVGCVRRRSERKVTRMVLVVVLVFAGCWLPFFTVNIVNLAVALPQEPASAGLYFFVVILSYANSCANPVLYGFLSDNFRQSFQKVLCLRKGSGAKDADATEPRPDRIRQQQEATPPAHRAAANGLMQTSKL
T3 sequence (P32745 whole entry): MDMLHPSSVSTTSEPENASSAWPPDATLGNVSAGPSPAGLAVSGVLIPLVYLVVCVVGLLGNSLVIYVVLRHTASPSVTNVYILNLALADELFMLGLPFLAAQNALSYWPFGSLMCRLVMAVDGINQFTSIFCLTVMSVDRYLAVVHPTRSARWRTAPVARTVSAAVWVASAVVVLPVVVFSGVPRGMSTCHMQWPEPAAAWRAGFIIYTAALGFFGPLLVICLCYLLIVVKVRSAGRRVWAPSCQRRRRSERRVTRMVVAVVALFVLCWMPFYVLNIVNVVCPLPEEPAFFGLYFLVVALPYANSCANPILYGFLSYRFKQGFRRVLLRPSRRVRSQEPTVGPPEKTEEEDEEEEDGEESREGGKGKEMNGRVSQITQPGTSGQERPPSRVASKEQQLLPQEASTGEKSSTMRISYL
T1 sequence (P30872 whole entry): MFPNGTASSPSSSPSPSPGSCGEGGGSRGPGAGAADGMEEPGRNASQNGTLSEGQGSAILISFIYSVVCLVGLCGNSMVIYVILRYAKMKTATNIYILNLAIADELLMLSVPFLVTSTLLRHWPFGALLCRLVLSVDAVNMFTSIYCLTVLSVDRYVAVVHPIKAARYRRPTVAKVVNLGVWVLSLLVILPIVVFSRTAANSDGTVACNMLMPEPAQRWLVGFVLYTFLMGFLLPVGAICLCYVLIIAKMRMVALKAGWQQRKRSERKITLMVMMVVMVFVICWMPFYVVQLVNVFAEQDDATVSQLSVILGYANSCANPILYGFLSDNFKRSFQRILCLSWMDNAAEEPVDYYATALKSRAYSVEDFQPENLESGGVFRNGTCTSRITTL
T2 sequence (P30874 whole entry): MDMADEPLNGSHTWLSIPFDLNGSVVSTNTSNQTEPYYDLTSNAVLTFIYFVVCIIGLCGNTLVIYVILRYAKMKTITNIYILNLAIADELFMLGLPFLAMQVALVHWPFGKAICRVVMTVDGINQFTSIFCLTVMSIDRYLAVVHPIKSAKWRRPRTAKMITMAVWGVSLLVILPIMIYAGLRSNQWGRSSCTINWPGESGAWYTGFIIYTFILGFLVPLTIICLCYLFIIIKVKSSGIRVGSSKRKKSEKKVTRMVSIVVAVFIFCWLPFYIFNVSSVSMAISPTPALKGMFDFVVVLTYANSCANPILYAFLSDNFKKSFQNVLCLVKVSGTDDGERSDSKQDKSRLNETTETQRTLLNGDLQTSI

## CSc1cccc2c(C(C)(C)NC(=O)[C@H]3[C@@H]4CNC[C@@H]43)nn(C)c12 [Compound 14, (1R,5S,6R)-N-(2-(1-Methyl-7-(Methylthio)-1H-Indazol-3-yl)Prop-2-yl)-3-Azabicyclo[3.1.0]Hexane-6-Carboxamide]
[1]
  half-life at 1 µM: > 186 min
[2]
  half-life at 1 µM: > 186 min
[3]
  half-life: 155 ± 30 min
[3]; read-out: Apparent volume of distribution
  Vd: 7.09 ± 1.08 L/kg
[3]; read-out: Clearance rate
  clearance: 48.7 ± 5.01 mL/min/kg
Rat CFA pain model; 3 mg/kg oral group
  Paw withdrawal threshold (PWT(g)) (average) 0 hours: 3.118 g
Rat CFA pain model; 3 mg/kg oral
  Paw withdrawal threshold (PWT(g)) (average) 1 hour: 3.535 g
  Paw withdrawal threshold (PWT(g)) (average) 2 hours: 5.369 g
  Paw withdrawal threshold (PWT(g)) (average) 4 hours: 5.335 g
Rat CFA pain model; 10 mg/kg oral group
  Paw withdrawal threshold (PWT(g)) (average) 0 hours: 3.118 g
Rat CFA pain model; 10 mg/kg oral
  Paw withdrawal threshold (PWT(g)) (average) 1 hour: 4.155 g
  Paw withdrawal threshold (PWT(g)) (average) 2 hours: 5.789 g
  Paw withdrawal threshold (PWT(g)) (average) 4 hours: 7.308 ** g
Rat CFA pain model; 30 mg/kg oral group
  Paw withdrawal threshold (PWT(g)) (average) 0 hours: 3.079 g
Rat CFA pain model; 30 mg/kg oral
  Paw withdrawal threshold (PWT(g)) (average) 1 hour: 4.051 g
  Paw withdrawal threshold (PWT(g)) (average) 2 hours: 5.683 g
  Paw withdrawal threshold (PWT(g)) (average) 4 hours: 8.213 **** g
Rat CFA pain model; oral 3, 10, 30 mg/kg, 4 hours after administration
  inhibition of CFA-induced mechanical hyperalgesia (in words): dose-dependently inhibit
Rat CFA pain model; oral, inhibition of CFA-induced mechanical hyperalgesia
  onset dose: 10 mg/kg
Human SSTR1
  Ki: 799 nM
Human SSTR2
  Ki: > 5310 nM
Human SSTR3
  Ki: > 3420 nM
Human SSTR5
  Ki: > 5650 nM
Human SSTR4
  Ki: 0.51 nM
Human SSTR4; ratio of binding Ki values, selectivity
  SSTR4 /SSTR 1: 879.5
